ChEMBL document CHEMBL5154827, “Discovery of S-217622, a Noncovalent Oral SARS-CoV-2 3CL Protease Inhibitor Clinical Candidate for Treating COVID-19” (J Med Chem, 2022)

What was measured:
SARS-CoV-2 [1] = assay: In vivo antiviral activity against SARS CoV-2 gamma strain (hCoV-19/Japan/TY7-501/202) harbouring spike protein K417T mutant intranasally inoculated in BALB/c mouse assessed as reduction in lung intrapulmonary viral titer at 16 to 32 mg/kg, po immediately after viral infection and 12 hrs after viral infection measured after 24 hrs of post infection; assay type: functional, Severe acute respiratory syndrome coronavirus 2; details: dose 16-32 mg/kg
SARS-CoV-2 [2] = assay: In vivo antiviral activity against SARS CoV-2 Gamma strain (hCoV-19/Japan/TY7-501/202) harbouring spike protein K417T mutant intranasally inoculated in BALB/c mouse assessed as reduction in lung intrapulmonary viral titer administered orally immediately after viral infection and 12 hrs after infection measured after 24 hrs of post infection; assay type: functional, organism-based; details: Severe acute respiratory syndrome coronavirus 2, route po, DDE = dose-dependent effect

Which TCID50 (SARS-CoV-2 [1]) does the source give for `Cn1cnc(Cn2c(=O)[nH]/c(=N\c3cc4cn(C)nc4cc3Cl)n(Cc3cc(F)c(F)cc3F)c2=O)n1` here?
Its TCID50 is 1.8 log10/ml.

What about the Activity (SARS-CoV-2 [2]) of the same compound?
Its Activity is “Dde”.
